Experimental data published in patent US7737127B2, “2-propynyl adenosine analogs having A2A agonist activity and compositions thereof” (University of Virginia Patent Foundation, priority 2001, dated 2010).
Like-named read-outs stand apart in the source and are kept apart here.

Assays:
[1] = molecular target: T1, human A1 AR (Homo sapiens, UniProt P30542); experiment: Radioligand competition binding (125I-ABA) to human A1 AR in CHO K1 cell membranes; details: for Ki: Ki from competition binding, 125I-ABA, CHO K1 cell membranes; for A1/A2A: selectivity ratio A1 over A2A
T1 sequence (P30542 1-326): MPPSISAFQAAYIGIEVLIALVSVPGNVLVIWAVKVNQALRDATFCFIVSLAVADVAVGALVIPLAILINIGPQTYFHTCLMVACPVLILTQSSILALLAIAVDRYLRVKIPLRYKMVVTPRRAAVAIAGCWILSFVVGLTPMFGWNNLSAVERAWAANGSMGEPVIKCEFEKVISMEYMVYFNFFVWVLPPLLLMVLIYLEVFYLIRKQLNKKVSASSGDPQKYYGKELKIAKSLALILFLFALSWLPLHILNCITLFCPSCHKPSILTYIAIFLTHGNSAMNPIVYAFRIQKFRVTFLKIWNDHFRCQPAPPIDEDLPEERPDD

[2] = molecular target: recombinant human A2A receptors (Homo sapiens, UniProt P29274); experiment: Radioligand competition binding to recombinant human A2A receptors in Sf9 cell membranes; details: Ki from competition binding, Sf9 cell membranes
recombinant human A2A receptors, sequence (P29274 whole entry): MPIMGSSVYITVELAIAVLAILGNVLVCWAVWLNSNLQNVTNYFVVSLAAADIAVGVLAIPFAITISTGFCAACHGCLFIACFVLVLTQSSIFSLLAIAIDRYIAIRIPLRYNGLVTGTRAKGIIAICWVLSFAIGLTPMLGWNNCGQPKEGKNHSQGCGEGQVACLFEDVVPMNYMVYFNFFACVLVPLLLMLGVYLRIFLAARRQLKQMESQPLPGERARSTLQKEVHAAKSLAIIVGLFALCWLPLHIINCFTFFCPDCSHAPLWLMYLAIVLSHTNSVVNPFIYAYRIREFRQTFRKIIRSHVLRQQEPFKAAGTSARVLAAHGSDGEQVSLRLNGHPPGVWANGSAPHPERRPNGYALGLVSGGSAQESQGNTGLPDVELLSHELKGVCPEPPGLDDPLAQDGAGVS
Description: Sf9 cells were cultured in Grace's medium supplemented with 10% fetal bovine serum, 2.5 μg/ml amphotericin B and 50 μg/ml gentamycin in an atmosphere of 50% N2/50% O2. […] Infected cells were harvested 3 days post-infection and washed twice in insect PBS (PBS pH 6.3). Cells were then resuspended in lysis buffer (20 mM HEPES pH 7.5, 150 mM NaCl, 3 mM MgCl2, 1 mM β-mercaptoethanol (BME), 5 μg/mL leupeptin, 5 μg/mL pepstatin A, 1 μg/mL aprotinin, and 0.1 mM PMSF) and snap frozen for storage at −80° C. Cells were thawed on ice, brought to 30 mL total volume in lysis buffer, and burst by N2 cavitation (600 psi for 20 minutes). A low-speed centrifugation was performed to remove any unlysed cells (1000×g for 10 minutes), followed by a high-speed centrifugation (17,000×g for 30 minutes). The pellet from the final centrifugation was homogenized in buffer containing 20 mM HEPES pH 8, 100 mM NaCl, 1% glycerol, 2 μg/mL leupeptin, 2 μg/mL pepstatin A, 2 μg/mL Aprotinin, 0.1 mM PMSF, and 10 μM GDP using a small glass homogenizer followed by passage through a 26 gauge needle. Membranes were aliquoted, snap frozen in liquid N2, and stored at −80° C.
Binding experiments were performed in triplicate with 5 μg (A2A) or 25 μg (A1 and A3) membrane protein in a total volume of 0.1 mL HE buffer (20 mM HEPES and 1 mM EDTA) with 1 U/mL adenosine deaminase and 5 mM MgCl2 with or without 50 μM GTPγS. Membranes were incubated with radioligands at room temperature for three hours (for agonists) or two hours (for antagonists) in Millipore Multiscreene® 96-well GF/C filter plates and assays were terminated by rapid filtration on a cell harvester (Brandel, Gaithersburg, Md.) followed by 4×150 μl washes over 30 seconds with ice cold 10 mM Tris-HCl, pH 7.4, 10 mM MgCl2.

[3] = tested on: human neutrophils; experiment: Human neutrophil oxidative activity, luminol-enhanced chemiluminescence; format: cell-based; details: for EC50: Homo sapiens, Neutrophil, read-out: PMN oxid (-log EC50) (converted); for EC50 / PMN oxid (-log EC50): human neutrophil experiment w/o Rolipram; for PMN oxid + roli (-log EC50): human neutrophil experiment w/Rolipram
Description: Chemiluminescence Methods: Lumninol enhanced chemiluminescence, a measure of neutrophil oxidative activity, is dependent upon both superoxide production and mobilization of the granule enzyme myeloperoxidase. The light is emitted from unstable high-energy oxygen species such as hypochlorous acid and singlet oxygen generated by activated neutrophils.
The plate was incubated 5 min (37 C) and then fMLP (50 l in HA; final concentration […]) was added to all wells.
Data are presented as peak chemiluminescence as percent of activity in the absence of an adenosine agonist. The EC50 was determined using PRISM software. All compounds were tested with PMNs from three separate donors.
Lummol-enhanced chemiluminescence, a measure of neutrophil oxidative activity, is dependent upon both superoxide production and mobilization of the lysosomal granule enzyme myeloperoxidase. The light is emitted from unstable high-energy oxygen species generated by activated neutrophils. Purified neutrophils (5-10×10^5/ml) were incubated in Hanks balanced salt solution containing 0.1% human serum albumin (1 ml) with the tested A2A agonist with or without rolipram and with or without tumor necrosis factor-alpha (1 U/ml) for 30 minutes at 37° C. in a shaking water bath. […] Chemiluminescence is reported as relative peak light emitted (=height of the curve) compared to samples with tumor necrosis factor-alpha and without agonist or rolipram.

[4] = molecular target: T2, A3 AR (Homo sapiens, UniProt P0DMS8); experiment: Radioligand competition binding (125I-ABA) to human A3 AR in HEK 293 cell membranes; details: for Ki: Ki from competition binding, 125I-ABA, HEK 293 cell membranes; for A3/A2A: selectivity ratio A3 over A2A
T2 sequence (P0DMS8 1-318): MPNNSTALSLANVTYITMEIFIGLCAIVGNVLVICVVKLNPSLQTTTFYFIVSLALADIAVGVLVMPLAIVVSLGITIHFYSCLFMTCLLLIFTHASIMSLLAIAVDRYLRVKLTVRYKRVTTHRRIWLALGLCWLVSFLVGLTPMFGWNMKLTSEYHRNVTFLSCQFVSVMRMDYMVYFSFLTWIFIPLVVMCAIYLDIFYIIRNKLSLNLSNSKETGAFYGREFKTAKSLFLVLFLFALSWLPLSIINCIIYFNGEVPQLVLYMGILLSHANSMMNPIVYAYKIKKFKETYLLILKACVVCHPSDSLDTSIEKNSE

| SMILES | Ki ([1]; A1 ± SEM) [nM] | A1/A2A [1] | Ki ([2]; A2A ± SEM) [nM] | EC50 [3] [nM] | PMN oxid + roli (-log EC50) [3] | Ki ([4]; A3 ± SEM) [nM] | A3/A2A [4] | Ki ([1]; read-out: A1 ± SEM) [nM] | Ki ([2]; read-out: A2A ± SEM) [nM] | PMN oxid (-log EC50) [3] | Ki ([4]; read-out: A3 ± SEM) [nM] |
| --- | --- | --- | --- | --- | --- | --- | --- | --- | --- | --- | --- |
| CCNC(=O)[C@H]1O[C@@H](n2cnc3c(N)nc(C#CCN4CCN(C(=O)OCC)CC4)nc32)C(O)C1O (stereo in doubt) [JR-3213, 4-{3-[6-Amino-9-(5-ethylcarbamoyl-3,4-dihydroxytetrahydrofuran-2-yl)-9H-purin-2-yl]-prop-2-ynyl}-piperazine-1-carboxylic acid ethyl ester] | 15.8 ± 0.48 | 8.3 | 1.9 ± 0.4 | 3.47 | 9.11 | 42.3 ± 18.3 | 22.3 |  |  |  |  |
| CCNC(=O)[C@H]1O[C@@H](n2cnc3c(N)nc(C#CCN4CCCCC4C(=O)OC)nc32)C(O)C1O (stereo partly drawn) [JR-3253, 1-{3-[6-Amino-9-(5-ethylcarbamoyl-3,4-dihydroxytetrahydrofuran-2-yl)-9H-purin-2-yl]-prop-2-ynyl}-piperidine-2-carboxylic acid methyl ester] | 13.8 ± 0.5 | 4.2 | 3.29 ± 0.49 | 43.7 | 8.42 | 31.3 ± 9.3 | 9.5 |  |  |  |  |
| CCNC(=O)[C@H]1O[C@@H](n2cnc3c(N)nc(C#CCN4CCC(C(=O)OCC)CC4)nc32)C(O)C1O (stereo in doubt) [JR-3279, 1-{3-[6-Amino-9-(5-ethylcarbamoyl-3,4-dihydroxytetrahydrofuran-2-yl)-9H-purin-2-yl]-prop-2-ynyl}-piperidine-4-carboxylic acid ethyl ester] | 14.4 | 3.8 | 3.82 ± 0.95 | 13.8 |  |  | 0.0 |  |  |  |  |
| CCNC(=O)[C@H]1O[C@@H](n2cnc3c(N)nc(C#CC4(O)CCC(c5ccccc5)CC4)nc32)C(O)C1O (stereo in doubt) [JR-3161, 5-[6-Amino-2-(1-hydroxy-4-phenyl-cyclohexylethynyl)-purin-9-yl]-3,4-dihydroxytetrahydrofuran-2-carboxylic acid ethylamide] | 10.9 ± 0.5 | 12.2 | 0.9 ± 0.04 | 4.47 | 9.29 | 113 ± 6 | 127.0 |  |  |  |  |
| CCNC(=O)[C@H]1O[C@@H](n2cnc3c(N)nc(C#CCC4CCN(C(=O)OCC(C)C)CC4)nc32)C(O)C1O (stereo in doubt) [JR-4011, 4-{3-[6-Amino-9-(5-ethylcarbamoyl-3,4-dihydroxytetrahydrofuran-2-yl)-9H-purin-2-yl]-prop-2-ynyl}-piperidine-1-carboxylic acid isobutyl ester] |  | 0.0 | 0.61 ± 0.06 | 3.47 |  | 71.7 | 117.5 |  |  |  |  |
| CCNC(=O)[C@H]1O[C@@H](n2cnc3c(N)nc(C#CC4(O)CC(C)(C)CC(C)(C)C4)nc32)C(O)C1O (stereo in doubt) [JR-3163, 5-[6-Amino-2-(1-hydroxy-3,3,5,5-tetramethyl-cyclohexylethynyl)-purin-9-yl]-3,4-dihydroxytetrahydrofuran-2-carboxylic acid ethylamide] | 784 ± 94 | 70.6 | 11.1 ± 2.8 | 537 | 7.67 | 152 ± 62 | 13.7 |  |  |  |  |
| CCNC(=O)C1OC(n2cnc3c(N)nc(C#CCC4CCNCC4)nc32)C(O)C1O (stereo not drawn) [JR-3261] |  | 8.3 |  |  | 7.6 |  | 15.2 | 47.3 ± 11.6 | 5.7 ± 1.8 | 6.4 | 86.7 ± 3.75 |
| CCNC(=O)[C@H]1O[C@@H](n2cnc3c(N)nc(C#CCC4CCC(C(=O)O)CC4)nc32)C(O)C1O (stereo in doubt) [ATL-146a, 4-{3-[6-Amino-9-(5-ethylcarbamoyl-3,4-dihydroxytetrahydrofuran-2-yl)-9H-purin-2-yl]-prop-2-ynyl}-cyclohexanecarboxylic acid] | 189 ± 19 | 6.4 | 29.6 ± 1.2 | 912 | 7.72 | 29 ± 10 | 1.0 |  |  |  |  |
| CCNC(=O)[C@H]1O[C@@H](n2cnc3c(N)nc(C#CC4(O)CCCC(C)C4)nc32)C(O)C1O (stereo partly drawn) [JR-3179, 5-[6-Amino-2-(1-hydroxy-3-methyl-cyclohexylethynyl)-purin-9-yl]-3,4-dihydroxytetrahydrofuran-2-carboxylic acid ethylamide] | 8.5 ± 0.3 | 19.3 | 0.4 ± 0.05 | 0.661 | 10.07 | 12.6 ± 3.6 | 28.6 |  |  |  |  |
| CCNC(=O)[C@H]1O[C@@H](n2cnc3c(N)nc(C#CCC4CCN(C(=O)OCC)CC4)nc32)C(O)C1O (stereo in doubt) [JR-3269, 4-{3-[6-Amino-9-(5-ethylcarbamoyl-3,4-dihydroxytetrahydrofuran-2-yl)-9H-purin-2-yl]-prop-2-ynyl}-piperidine-1-carboxylic acid ethyl ester] | 134 | 106.0 | 1.26 ± 0.21 | 2.24 |  | 68.6 | 54.4 |  |  |  |  |
| CCNC(=O)[C@H]1O[C@@H](n2cnc3c(N)nc(C#CCC4CCN(C(=O)OC(C)(C)C)CC4)nc32)C(O)C1O (stereo in doubt) [JR-3259, 4-{3-[6-Amino-9-(5-ethylcarbamoyl-3,4-dihydroxytetrahydrofuran-2-yl)-9H-purin-2-yl]-prop-2-ynyl}-piperidine-1-carboxylic acid tert-butyl ester] | 205 ± 2.6 | 227.8 | 0.9 ± 0.1 | 3.47 | 9.26 | 45.6 ± 10 | 50.7 |  |  |  |  |
| CCNC(=O)[C@H]1O[C@@H](n2cnc3c(N)nc(C#CCC4CCC(C)(C(=O)OC)CC4)nc32)C(O)C1O (single isomer, unassigned) [JR-3067B, 4-{3-[6-Amino-9-(5-ethylcarbamoyl-3,4-dihydroxytetrahydrofuran-2-yl)-9H-purin-2-yl]-prop-2-ynyl}-1-methyl-cyclohexanecarboxylic acid methyl ester] | 121 ± 44 | 30.3 | 4 ± 0.2 |  | 8.2 | 212 ± 95 | 53.0 |  |  | 6.83 |  |
| CCNC(=O)C1CCC(CC#Cc2nc(N)c3ncn([C@@H]4O[C@H](C(=O)NCC)C(O)C4O)c3n2)CC1 (stereo in doubt) [JR-3037, 5-{6-Amino-2-[3-(4-ethylcarbamoyl-cyclohexyl)-prop-1-ynyl]-purin-9-yl}-3,4-dihydroxytetrahydrofuran-2-carboxylic acid ethylamide] | 113 ± 11 | 27.6 | 4.1 ± 0.9 | 45.7 | 8.68 | 93 ± 21 | 22.7 |  |  |  |  |
| CCNC(=O)[C@H]1O[C@@H](n2cnc3c(N)nc(C#CC[C@H]4CC[C@H](COC(=O)OC)CC4)nc32)C(O)C1O (stereo partly drawn) [ATL214, N-Ethyl 2-{3-[trans-4-(methoxycarbonyloxymethyl)-cyclohexyl]-1-propyn-1-yl}adenosine-5′-uronamide] | 100 | 125 | 0.8 | 2 |  | 100 | 125 |  |  |  |  |
| CCNC(=O)[C@H]1O[C@@H](n2cnc3c(N)nc(C#CC4(O)CCCCC4C(C)(C)C)nc32)C(O)C1O (stereo in doubt) [JR-3227, 5-[6-Amino-2-(2-tert-butyl-1-hydroxycyclohexylethynyl)purin-9-yl]-3,4-dihydroxytetrahydrofuran-2-carboxylic acid ethylamide] | 536 | 21.4 | 25.1 ± 1.3 | 7410 | 7.14 | 50 | 2.0 |  |  |  |  |
